Test results as given in patent US20140072629A1, “BIOLOGIC MATRICES COMPRISING ANTI-INFECTIVE, METHODS AND COMPOSITIONS RELATED THERETO” (MUSCULOSKELETAL TRANSPLANT FOUNDATION, priority 2008, published 2014).
Like-named read-outs stand apart in the source and are kept apart here.

Assays:
[1] = Solubility / saturation point of Triclosan in alcohol and water; assay type: physicochemical
Text: In particular embodiments, an alcohol solution comprising triclosan is delivered to a hydrated acellular biologic matrix, e.g., a biologic matrix treated with a 40% SDA solution. In other embodiments, the matrix is hydrated with e.g., water, saline solution, and the like. Without being bound to theory, it is thought that the triclosan will partially separate from the alcohol phase due to the triclosan's great differential solubility (alcohol soluble and water insoluble) and deposit as an undissolved agent on the surface of and within the biologic tissue. Therefore, after implantation of the triclosan-treated biologic tissue into a subject, the triclosan will slowly exude or leach off the biologic tissue and out of the alcohol layer directly into the wound zone where bacteria may be collecting. Moreover, some of the triclosan may be held by the insoluble water phase and assist in this slow release. In this regard, where the soluble form of triclosan in alcohol would typically be active right away and dissipate within 8-12 hours in a transplant subject, such as a human abdominal hernia patient, it is thought that the precipitated triclosan in a transplanted treated acellular matrix of the subject invention will reside longer at the wound site, e.g., up to about 24-48 hours after transplantation, thereby increasing the effective amount of anti-infective available at the wound site. […]

[2] = cited from earlier work

Oc1cc(Cl)ccc1Oc1ccc(Cl)cc1Cl [Triclosan, 2,4,4′-trichloro-2′-hydroxy-diphenyl-ether]
saturation point ([1]; 25% alcohol): 600 ppm
saturation point ([1]; 30% alcohol): 1700 ppm
solubility, in words ([2]; in alcohol): very soluble
solubility, in words ([2]; in water): very insoluble
